In paper PMC11645656, “MRGPRX4 mediates phospho-drug associated pruritus in a humanized mouse model” (Science translational medicine, 2024):
Several values for one entry are separate records, joined by “and”; a condition that tells them apart may be missing. Identical values can stand only once.

How the values were obtained:
MRGPRX4 (S83) = biological target: T1, MRGPRX4 (S83) (Homo sapiens, UniProt Q96LA9, L83S); test: EC50 determination, intracellular calcium mobilization in MRGPRX4 stably expressed HEK293 cells (FLIPR Calcium 5, Flexstation-3); assay type: cell-based; set-up: Fig. 1D dose-response, calcium mobilization response (individual replicate) / calcium mobilization response (Fig. 1D dose-response raw data): unit not given here
T1 construct: expressed in transfected cells
T1 sequence (Q96LA9 whole entry L83S): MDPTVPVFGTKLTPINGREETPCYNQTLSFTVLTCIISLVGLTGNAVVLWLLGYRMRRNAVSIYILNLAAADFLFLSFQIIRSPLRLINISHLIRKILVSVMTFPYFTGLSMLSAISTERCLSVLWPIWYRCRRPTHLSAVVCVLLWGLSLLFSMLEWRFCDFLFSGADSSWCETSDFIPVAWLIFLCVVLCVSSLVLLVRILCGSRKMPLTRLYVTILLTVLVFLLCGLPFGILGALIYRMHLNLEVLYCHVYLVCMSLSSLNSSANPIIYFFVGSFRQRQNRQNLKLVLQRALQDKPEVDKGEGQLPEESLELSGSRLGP
In short: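 HEK293 cells stably expressing receptor (parental HEK293 alongside) loaded with Calcium 5 dye in HBSS/20 mM HEPES, pH 7.4, 1 h at 37 °C, then compounds added. Response = peak minus pre-drug baseline, triplicates averaged; EC50 from 4PL fit.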

[1] = system: NP2-X4+ mice (MRGPRX4 in Mrgpra3+ NP2 sensory neurons); test: Itch behavioral study (scratching bouts after subcutaneous nape injection) in NP2-X4+ mice; assay type: in vivo, mouse; details: for Scratching bouts of individual animals: NP2-X4+, 30 min after injection of 50 μl 10 mM into the nape, each cell one mouse
NP2-WT mice = test: Itch behavioral study (scratching bouts after subcutaneous nape injection) in littermate control NP2-WT mice; assay type: in vivo; details: 30 min after injection of 50 μl 10 mM into the nape, each cell one mouse
Source text: Fig. 2. Phosphate monoester prodrugs induce itch in NP2-MRGPRX4+ mice through activating NP2 primary sensory neurons. (A) Mating strategy to generate NP2-X4+ mice. (B) In situ hybridization showing MRGPRX4 transcripts (magenta) in NP2-X4+ DRG as indicated by arrowheads (left) but not in littermate control NP2-WT (right). NP2 subpopulation accounts for 5% of total DRG neurons. DAPI, blue. Scale bar, 50 μm. […] . Data are expressed as mean ± SEM. *p< 0.05, **p< 0.01 and ***p< 0.001 by two-tailed unpaired Student’s t-test. ns = no statistical significance observed. (D and E) Traces of average (top, depicted as mean ± 95% confidence interval) and individual (bottom, reflected by the heatmap) calcium activity, measured by fluorescence intensity normalized to the baseline intensity (FT/F0) over time of NP2-X4+ (D) and NP2-WT (E) DRG neurons labelled with GCaMP6s (n = 110–150 neurons pooled from 3–7 independent culture vessels from 2–4 mice in each condition). 10 μM phospho-drugs and 1 mM CQ were added as indicated by the arrowheads. Neurons with FT/F0 > 1.5 after compound application were considered a positive responder. NP2-X4+: NP2-MRGPRX4+; DRG, dorsal root ganglia; CQ: chloroquine.
. All the animals used were heterozygous unless otherwise specified. NP2-X4+ and NP2-WT littermates were generated by crossing Mrgpra3-Cre to Rosa26-lsl-MRGPRX4 as detailed previously ([15]). NP2-X4+ mice were further crossed to homozygous Rosa26-lsl-GCaMP6s to obtain NP2-WT/GCaMP6s and NP2-X4+/GCaMP6s animals. A detailed mating strategy is illustrated in fig. S5. Pirt-Cre-GCaMP6s animals were acquired by crossing Pirt-Cre to homozygous Rosa26-lsl-GCaMP6s. Pirt-Cre animals were generated through homologous recombination as indicated previously ([37]). Rosa26-lsl-GCaMP6s mouse line was provided by Dr. Dwight Bergles’ lab at the Johns Hopkins School of Medicine.

NP2-X4+ DRG neurons = test: GCaMP6s calcium imaging of cultured NP2-X4+ DRG neurons; assay type: cell-based, mouse; details: 10 μM phospho-drugs; 1 mM CQ
Source text: (§1) Fig. 2. Phosphate monoester prodrugs induce itch in NP2-MRGPRX4+ mice through activating NP2 primary sensory neurons. (A) Mating strategy to generate NP2-X4+ mice. (B) In situ hybridization showing MRGPRX4 transcripts (magenta) in NP2-X4+ DRG as indicated by arrowheads (left) but not in littermate control NP2-WT (right). NP2 subpopulation accounts for 5% of total DRG neurons. DAPI, blue. Scale bar, 50 μm. […]. Data are expressed as mean ± SEM. *p< 0.05, **p< 0.01 and ***p< 0.001 by two-tailed unpaired Student’s t-test. ns = no statistical significance observed. (D and E) Traces of average (top, depicted as mean ± 95% confidence interval) and individual (bottom, reflected by the heatmap) calcium activity, measured by fluorescence intensity normalized to the baseline intensity (FT/F0) over time of NP2-X4+ (D) and NP2-WT (E) DRG neurons labelled with GCaMP6s (n = 110–150 neurons pooled from 3–7 independent culture vessels from 2–4 mice in each condition). 10 μM phospho-drugs and 1 mM CQ were added as indicated by the arrowheads. Neurons with FT/F0 > 1.5 after compound application were considered a positive responder. NP2-X4+: NP2-MRGPRX4+; DRG, dorsal root ganglia; CQ: chloroquine.
The procedures were performed following previously established protocols ([15]). Murine DRGs (from both male and female) were harvested from all spinal segments and digested in dispase (5 mg/ml) / type I collagenase (1 mg/ml) enzyme mix at 37 °C for an hour. Enzyme mix was replaced with complete DH10 media (90% DMEM/F12, 10% FBS, penicillin (100 units/ml), and streptomycin (100 μg/ml)) and gently triturated with 1 ml pipette tip until the media turned cloudy without visible tissue chunks. Dissociated tissues were filtered through a 70 μm filter and spun down 1250 rpm for 5 min at RT. Supernatant was removed and the cell pellet was resuspended in complete DH10 media. Cell suspension was then added on top of poly-D-lysine- and laminin-coated coverslips and sat for 1–2 h at 37°C. Complete DH10 media supplemented with NGF (50 ng/ml) was then added into the vessel. Neurons were allowed to recover overnight at 37°C for the next-day calcium imaging experiment.
Calcium imaging data was collected with a Nikon Eclipse TE 200 microscope. Time series GCaMP6 fluorescence intensity was acquired through the FITC/GFP channel. Before the imaging, cultured neurons were washed and equilibrated in CIB for 30 min at 37°C. In each trial, compounds (as indicated in the results) were added into the imaging chamber after a 30 s baseline GCaMP6 activity was collected. […] Neurons with GCaMP6 signal rose above 50% of the baseline intensity after compound application were counted as positive responders and the percentage of responding neurons was calculated. […]

HTLA cells = test: PRESTO-Tango β-arrestin recruitment assay, parental HTLA cells without MRGPRX4 (control, fig. S1); assay type: cell-based
Source text: Supplement NIHMS2038790-supplement-table.xlsx, sheet "fig. S1" | column: Concentration (M)

[2] = vs dexamethasone; cited from earlier work
WT mice = test: Itch behavioral study in WT mice across concentrations (fig. S4)
Protocol: Experimenters and subjects scoring the recorded videos were both blind to the mouse genotype and tested compounds. Behavioral tests comparing NP2-WT and NP2-X4+ scratching behavior were 6–12weeks old littermates including both genders. In brief, on the day preceding the experiment, animals were acclimated to the test chamber for at least 30 min and the experimenters performed mock injections 1–2 times in between. On the day of experiments, animals were habituated in test chambers for 10 min before receiving subcutaneous injection of 50ul compounds. Videos were recorded for 30 min after the injection. A bout of scratching was defined as a sustained scratching movement initiated by hindpaws toward the injection site (until the pause of the movement / withdrawal of the hindpaw). Scratching bouts were quantified within the 30 min record sessions.

NP2-WT DRG neurons = test: GCaMP6s calcium imaging of cultured NP2-WT DRG neurons; assay type: cell-based, mouse; details: 10 μM phospho-drugs; 1 mM CQ
Source text: as §1, with “Neurons with FT/F0 > 1.5 after compound application were considered a positive responder. NP2-X4+: NP2-MRGPRX4+; DRG, dorsal root ganglia; CQ: chloroquine.” left out
Calcium imaging data was collected with a Nikon Eclipse TE 200 microscope. Time series GCaMP6 fluorescence intensity was acquired through the FITC/GFP channel. […] Neurons with GCaMP6 signal rose above 50% of the baseline intensity after compound application were counted as positive responders and the percentage of responding neurons was calculated. […]

For CC(=O)OCC(=O)[C@@]1(O)[C@H](C)C[C@H]2[C@@H]3CCC4=CC(=O)C=C[C@]4(C)[C@@]3(F)[C@@H](O)C[C@@]21C [Dexamethasone acetate], the “Fig. 1D dose-response, calcium mobilization response (individual replicate)” value (MRGPRX4 (S83); Concentration 9.76563e-7 M) was -48.502 and -46.356 and -48.988 and -43.676 and -48.158 and -43.385 and -85.123 and -4.652 and -42.229, the “Fig. 1D dose-response, calcium mobilization response (individual replicate)” value (MRGPRX4 (S83); Concentration 1.95313e-6 M) was -22.164 and -36.691 and -35.570 and -37.729 and -34.474 and -34.794 and -19.078 and -53.999 and -20.889 and the “Fig. 1D dose-response, calcium mobilization response (individual replicate)” value (MRGPRX4 (S83); Concentration 3.90625e-6 M) was -39.055 and -53.135 and -70.767 and -48.544 and -36.360 and -36.045 and -91.099 and -38.430 and -1.751. For the same molecule, the “Fig. 1D dose-response, calcium mobilization response (individual replicate)” value (MRGPRX4 (S83); Concentration 7.8125e-6 M) was -33.331 and -71.560 and -49.660 and -45.756 and -42.005 and -31.885 and -29.162 and -70.876 and -31.653, the “Fig. 1D dose-response, calcium mobilization response (individual replicate)” value (MRGPRX4 (S83); Concentration 1.5625e-5 M) was -37.387 and -60.340 and -52.439 and -33.449 and -38.008 and -34.728 and -69.819 and -42.708 and -12.221 and the “Fig. 1D dose-response, calcium mobilization response (individual replicate)” value (MRGPRX4 (S83); Concentration 3.125e-5 M) was -47.434 and -56.549 and -63.778 and -43.258 and -41.889 and -38.256 and -62.786 and -46.904 and -33.452. The “Fig. 1D dose-response, calcium mobilization response (individual replicate)” value (MRGPRX4 (S83); Concentration 6.25e-5 M) was -61.858 and -50.883 and -76.723 and -47.363 and -44.877 and -37.522 and -10.190 and -37.194 and -110.631, the “Fig. 1D dose-response, calcium mobilization response (individual replicate)” value (MRGPRX4 (S83); Concentration 0.00025 M) was -64.043 and -50.303 and -56.027 and -44.560 and -42.575 and -45.473 and -89.145 and -53.447 and -8.636 and the “Fig. 1D dose-response, calcium mobilization response (individual replicate)” value (MRGPRX4 (S83); Concentration 0.0005 M) was -48.359 and -6.029 and -35.851 and -38.822 and -45.234 and -19.021 and -30.402 and -28.831 and -36.978. The “Fig. 1D dose-response, calcium mobilization response (individual replicate)” value (MRGPRX4 (S83); Concentration 0.001 M) was -37.786 and -38.347 and -50.572 and -37.033 and -22.575 and -15.877 and -9.453 and -18.673 and -62.758, the “Itch in both NP2-X4+ and littermate WT controls” value ([1]; 50 μl 10 mM nape injection) was “slightly elevated itch” and the “Scratching / itch behavior, NP2-X4+ mice vs WT littermates” value ([1]; 50 μl 10 mM nape injection, 30 min) was “no differences in itch behavior were detected”. The “Scratching bouts of individual animals” value [1] was 0 and 26 and 59 and 22 and 2 and 3 and 9 (2×) and 20 and the “Scratching bouts of individual animals” value (NP2-WT mice) was 20 and 31 and 30 and 18 and 14 and 9 and 75 and 34 and 3.
With C[C@@H]1C[C@H]2[C@@H]3CCC4=CC(=O)C=C[C@]4(C)[C@@]3(F)[C@@H](O)C[C@]2(C)[C@@]1(O)C(=O)COP(=O)(O)O [Dexamethasone phosphate] the “Scratching bouts of individual animals” value [1] was 19 and 29 and 40 and 22 and 17 and 35 and 2 and 71 and 63 and 41, the “Scratching bouts of individual animals” value (NP2-WT mice) was 4 and 14 and 5 (2×) and 8 and 3 (2×) and 18 and 12 and 42 and the “Calcium response of NP2-X4+ neurons” value (NP2-X4+ DRG neurons) was “strong calcium transients”. For the same molecule, the “PRESTO-Tango response (fig. S1), single replicate” value (“PRESTO-Tango response (fig. S1)” for short) (HTLA cells; concentration 4.88e-7 M) was 0.002254 and 0.004793 and 0.008408 and 0.006888 and 0.003935 and 0.001659, the “PRESTO-Tango response (fig. S1)” value (HTLA cells; concentration 9.77e-7 M) was 0.004343 and 0.01198 and 0.02598 and 0.007642 and 0.02244 and 0.00537 and the “PRESTO-Tango response (fig. S1)” value (HTLA cells; concentration 1.95e-6 M) was 0.003939 and 0.005577 and 0.007884 and 0.006351 and 0.008709 and 0.001173. For the same molecule, the “PRESTO-Tango response (fig. S1)” value (HTLA cells; concentration 3.91e-6 M) was 0.006644 and 0.008139 and 0.007744 and 0.01012 and 0.008517 and 0.007795, the “PRESTO-Tango response (fig. S1)” value (HTLA cells; concentration 7.81e-6 M) was 0.008709 and 0.01255 and 0.009916 and 0.01429 and 0.003964 and 0.009591 and the “PRESTO-Tango response (fig. S1)” value (HTLA cells; concentration 1.56e-5 M) was 0.01013 and 0.0155 and 0.008817 and 0.01021 and 0.0162 and 0.001357. For the same molecule, the “PRESTO-Tango response (fig. S1)” value (HTLA cells; concentration 3.13e-5 M) was 0.01293 and 0.02454 and 0.01076 and 0.01089 and 0.02171 and 0.002693, the “PRESTO-Tango response (fig. S1)” value (HTLA cells; concentration 6.25e-5 M) was 0.01139 and 0.03821 and 0.01576 and 0.0127 and 0.01288 and 0.03538 and the “PRESTO-Tango response (fig. S1)” value (HTLA cells; concentration 0.00025 M) was 0.01585 and 0.06272 and 0.01054 and 0.02134 and 0.01844 and 0.04104. For the same molecule, the “PRESTO-Tango response (fig. S1)” value (HTLA cells; concentration 0.0005 M) was 0.01737 and 0.05973 and 0.009456 and 0.02137 and 0.0304 and 0.02084, the “Enhancement of aqueous solubility” value [2] was “more than 500 fold” and the “Scratching bouts (each well represents individual mouse)” value (WT mice; 1 mM subcutaneous nape injection) was 5 and 12 and 10 and 47. The “Scratching bouts (each well represents individual mouse)” value (WT mice; 10 mM subcutaneous nape injection) was 2 and 30 and 18 and 13.
For CCN(CC)CCCC(C)Nc1ccnc2cc(Cl)ccc12 (centres unmarked) [Chloroquine], the “Calcium response of NP2-X4+ neurons” value (NP2-X4+ DRG neurons) was “responded” and the “Calcium response of NP2-WT neurons” value (NP2-WT DRG neurons) was “responded”.
